Assays:
[1] = system: SF-539; experiment: Antiproliferative activity against human SF-539 cells assessed as cell growth inhibition at 10 uM incubated for 24 hrs by sulforhodamine B assay; assay type: functional; conditions: read-out: GI
[2] = system: MOLT-4; experiment: Antiproliferative activity against human MOLT-4 cells assessed as cell growth inhibition at 10 uM incubated for 24 hrs by sulforhodamine B assay; assay type: functional; conditions: read-out: GI
[3] = system: RPMI-8226; experiment: Antiproliferative activity against human RPMI-8226 cells assessed as cell growth inhibition at 10 uM incubated for 24 hrs by sulforhodamine B assay; assay type: functional; conditions: read-out: GI
[4] = system: SR; experiment: Antiproliferative activity against human SR cells assessed as cell growth inhibition at 10 uM incubated for 24 hrs by sulforhodamine B assay; assay type: functional; conditions: read-out: GI
[5] = system: A549; experiment: Antiproliferative activity against human A549 cells assessed as cell growth inhibition at 10 uM incubated for 24 hrs by sulforhodamine B assay; assay type: functional; conditions: read-out: GI
[6] = system: EKVX; experiment: Antiproliferative activity against human EKVX cells assessed as cell growth inhibition at 10 uM incubated for 24 hrs by sulforhodamine B assay; assay type: functional; conditions: read-out: GI
[7] = system: NCI-H226; experiment: Antiproliferative activity against human NCI-H226 cells assessed as cell growth inhibition at 10 uM incubated for 24 hrs by sulforhodamine B assay; assay type: functional; conditions: read-out: GI
[8] = system: NCI-H23; experiment: Antiproliferative activity against human NCI-H23 cells assessed as cell growth inhibition at 10 uM incubated for 24 hrs by sulforhodamine B assay; assay type: functional; conditions: read-out: GI
[9] = Antiproliferative activity against human […] cells assessed as cell growth inhibition at 10 uM incubated for 24 hrs by sulforhodamine B assay; assay type: functional; conditions: read-out: GI
[10] = system: NCI-H460; experiment: Antiproliferative activity against human NCI-H460 cells assessed as cell growth inhibition at 10 uM incubated for 24 hrs by sulforhodamine B assay; assay type: functional; conditions: read-out: GI
[11] = system: HCC 2998; experiment: Antiproliferative activity against human HCC 2998 cells assessed as cell growth inhibition at 10 uM incubated for 24 hrs by sulforhodamine B assay; assay type: functional; conditions: read-out: GI
[12] = system: HCT-116; experiment: Antiproliferative activity against human HCT-116 cells assessed as cell growth inhibition at 10 uM incubated for 24 hrs by sulforhodamine B assay; assay type: functional; conditions: read-out: GI
[13] = system: HCT-15; experiment: Antiproliferative activity against human HCT-15 cells assessed as cell growth inhibition at 10 uM incubated for 24 hrs by sulforhodamine B assay; assay type: functional; conditions: read-out: GI
[14] = system: HT-29; experiment: Antiproliferative activity against human HT-29 cells assessed as cell growth inhibition at 10 uM incubated for 24 hrs by sulforhodamine B assay; assay type: functional; conditions: read-out: GI
[15] = system: SF-268; experiment: Antiproliferative activity against human SF-268 cells assessed as cell growth inhibition at 10 uM incubated for 24 hrs by sulforhodamine B assay; assay type: functional; conditions: read-out: GI
[16] = system: SNB-19; experiment: Antiproliferative activity against human SNB-19 cells assessed as cell growth inhibition at 10 uM incubated for 24 hrs by sulforhodamine B assay; assay type: functional; conditions: read-out: GI
[17] = system: UACC-62; experiment: Antiproliferative activity against human UACC-62 cells assessed as cell growth inhibition at 10 uM incubated for 24 hrs by sulforhodamine B assay; assay type: functional; conditions: read-out: GI
[18] = system: OVCAR-3; experiment: Antiproliferative activity against human OVCAR-3 cells assessed as cell growth inhibition at 10 uM incubated for 24 hrs by sulforhodamine B assay; assay type: functional; conditions: read-out: GI
[19] = system: OVCAR-4; experiment: Antiproliferative activity against human OVCAR-4 cells assessed as cell growth inhibition at 10 uM incubated for 24 hrs by sulforhodamine B assay; assay type: functional; conditions: read-out: GI
[20] = system: OVCAR-8; experiment: Antiproliferative activity against human OVCAR-8 cells assessed as cell growth inhibition at 10 uM incubated for 24 hrs by sulforhodamine B assay; assay type: functional; conditions: read-out: GI
[21] = system: NCI/ADR-RES; experiment: Antiproliferative activity against human NCI-ADR-RES cells assessed as cell growth inhibition at 10 uM incubated for 24 hrs by sulforhodamine B assay; assay type: functional; conditions: read-out: GI
[22] = system: SK-OV-3; experiment: Antiproliferative activity against human SK-OV-3 cells assessed as cell growth inhibition at 10 uM incubated for 24 hrs by sulforhodamine B assay; assay type: functional; conditions: read-out: GI
[23] = system: 786-0; experiment: Antiproliferative activity against human 786-0 cells assessed as cell growth inhibition at 10 uM incubated for 24 hrs by sulforhodamine B assay; assay type: functional; conditions: read-out: GI
[24] = system: A498; experiment: Antiproliferative activity against human A498 cells assessed as cell growth inhibition at 10 uM incubated for 24 hrs by sulforhodamine B assay; assay type: functional; conditions: read-out: GI
[25] = system: ACHN; experiment: Antiproliferative activity against human ACHN cells assessed as cell growth inhibition at 10 uM incubated for 24 hrs by sulforhodamine B assay; assay type: functional; conditions: read-out: GI
[26] = system: CAKI-1; experiment: Antiproliferative activity against human CAKI-1 cells assessed as cell growth inhibition at 10 uM incubated for 24 hrs by sulforhodamine B assay; assay type: functional; conditions: read-out: GI
[27] = system: UO-31; experiment: Antiproliferative activity against human UO-31 cells assessed as cell growth inhibition at 10 uM incubated for 24 hrs by sulforhodamine B assay; assay type: functional; conditions: read-out: GI
[28] = system: PC-3; experiment: Antiproliferative activity against human PC-3 cells assessed as cell growth inhibition at 10 uM incubated for 24 hrs by sulforhodamine B assay; assay type: functional; conditions: read-out: GI
[29] = system: Hs-578T; experiment: Antiproliferative activity against human HS-578T cells assessed as cell growth inhibition at 10 uM incubated for 24 hrs by sulforhodamine B assay; assay type: functional; conditions: read-out: GI
[30] = system: T47D; experiment: Antiproliferative activity against human T47D cells assessed as reduction in cell viability incubated for 24 hrs by sulforhodamine B assay; assay type: functional, cell-based
[31] = system: COLO 205; experiment: Antiproliferative activity against human COLA 205 cells assessed as reduction in cell viability incubated for 24 hrs by sulforhodamine B assay; conditions: COLO 205, 24 h
[32] = system: HCT-116; experiment: Antiproliferative activity against human HCT-116 cells assessed as reduction in cell viability incubated for 24 hrs by sulforhodamine B assay; conditions: HCT-116, 24 h
[33] = system: SW-620; experiment: Antiproliferative activity against human SW-620 cells assessed as reduction in cell viability incubated for 24 hrs by sulforhodamine B assay; conditions: SW-620, 24 h
[34] = system: A549; experiment: Antiproliferative activity against human A549 cells assessed as reduction in cell viability incubated for 24 hrs by sulforhodamine B assay; conditions: A549, 24 h
[35] = system: SK-OV-3; experiment: Antiproliferative activity against human SK-OV-3 cells assessed as reduction in cell viability incubated for 24 hrs by sulforhodamine B assay; conditions: SK-OV-3, 24 h
[36] = system: MCF7; experiment: Cell cycle arrest in human MCF7 cells assessed as accumulation at G1 phase incubated for 48 hrs by propidium iodide staining based flow cytometric analysis (reference value: 42.84 %); assay type: functional
[37] = system: MCF7; experiment: Cell cycle arrest in human MCF7 cells assessed as accumulation at sub G1 phase incubated for 48 hrs by propidium iodide staining based flow cytometric analysis (reference value: 1.09 %); assay type: functional
[38] = system: MDA-MB-231; experiment: Cell cycle arrest in human MDA-MB-231 cells assessed as accumulation at G1 phase incubated for 48 hrs by propidium iodide staining based flow cytometric analysis (reference value: 55.63 %); assay type: functional
[39] = system: MCF7; experiment: Induction of apoptosis in human MCF cells assessed as viable cells measured after 48 hrs by Annexin-V-FITC/propidium iodide staining based flow cytometry (reference value: 98.15%); assay type: functional
[40] = system: MDA-MB-231; experiment: Induction of apoptosis in human MDA-MB-231 cells assessed as necrotic cells measured after 48 hrs by Annexin-V-FITC/propidium iodide staining based flow cytometry (reference value: 1.13%); assay type: functional
[41] = system: MDA-MB-231; experiment: Antiproliferative activity against human MDA-MB-231 cells assessed as cell growth inhibition at 10 uM incubated for 24 hrs by sulforhodamine B assay; assay type: functional; conditions: read-out: GI

COc1ccc(OC)c(-c2nc(SCC(=O)c3ccc(Br)cc3)nc(Nc3ccc(S(N)(=O)=O)cc3)c2C#N)c1
inhibition of growth at 10 µM [1]: 71.6%
inhibition of growth at 10 µM [2]: 71.5%
inhibition of growth at 10 µM [3]: 48.8%
inhibition of growth at 10 µM [4]: 86.1%
inhibition of growth at 10 µM [5]: 32.5%
inhibition of growth at 10 µM [6]: 36.3%
inhibition of growth at 10 µM [7]: 50%
inhibition of growth at 10 µM [8]: 41.6%
inhibition of growth at 10 µM [9]: 18.4%
inhibition of growth at 10 µM [10]: 79.2%
inhibition of growth at 10 µM [11]: 29.1%
inhibition of growth at 10 µM [12]: 84.6%
inhibition of growth at 10 µM [13]: 77.9%
inhibition of growth at 10 µM [14]: 72.8%
inhibition of growth at 10 µM [15]: 43.3%
inhibition of growth at 10 µM [16]: 50.1%
inhibition of growth at 10 µM [17]: 57.3%
inhibition of growth at 10 µM [18]: 49.4%
inhibition of growth at 10 µM [19]: 42.6%
inhibition of growth at 10 µM [20]: 37.2%
inhibition of growth at 10 µM [21]: 25.6%
inhibition of growth at 10 µM [22]: 20.1%
inhibition of growth at 10 µM [23]: 58.6%
inhibition of growth at 10 µM [24]: 73.6%
inhibition of growth at 10 µM [25]: 44.1%
inhibition of growth at 10 µM [26]: 65.6%
inhibition of growth at 10 µM [27]: 40.8%
inhibition of growth at 10 µM [28]: 64.7%
inhibition of growth at 10 µM [29]: 86.6%
IC50 [30]: 2400 nM
IC50 [31]: 13.3 µM
IC50 [32]: 2500 nM
IC50 [33]: 4.5 µM
IC50 [34]: 16.5 µM
IC50 [35]: 29.9 µM
Activity [36]: 5.77%
Activity [37]: 35.5%
Activity [38]: 39.7%
Activity [39]: 88.17%
Activity [40]: 7.18%
inhibition of growth at 10 µM [41]: 37%

Source: ChEMBL document CHEMBL5038625, “Application of the dual-tail approach for the design and synthesis of novel Thiopyrimidine-Benzenesulfonamide hybrids as selective carbonic anhydrase inhibitors” (Eur J Med Chem, 2022)
